What was measured:
Assay type in all cases: in vivo
[1] = test system: Aphis gossypii; test: Aphis gossypii test (cotton leaves dipped into active compound preparation)
Protocol: (§1) Solvent: 7 parts by weight of dimethylformamide
(§2) Emulsifier: 2 parts by weight of alkylaryl polyglycol ether
(§3) To produce a suitable preparation of active compound, 1 part by weight of active compound is mixed with the stated amounts of solvent and emulsifier, and the concentrate is diluted with emulsifier-containing water to the desired concentration.
Cotton leaves (Gossypium hirsutum) which are heavily infested by the cotton aphid (Aphis gossypii) are treated by being dipped into the preparation of active compound of the desired concentration.
(§4) After the desired period of time, the kill in % is determined. 100% means that all aphids have been killed; 0% means that none of the aphids have been killed. The kill rates determined are entered into Colby's formula (see page 1).

[2] = test system: Myzus persicae; test: Myzus persicae test (cabbage leaves dipped into active compound preparation)
Protocol: as §1, §2, §3
Cabbage leaves (Brassica oleracea) which are heavily infested by the Green peach aphid (Myzus persicae) are treated by being dipped into the preparation of active compound of the desired concentration.
as §4

[3] = test system: Phaedon cochleariae; test: Phaedon cochleariae test (cabbage leaves dipped, populated with larvae); conditions: 200 ppm, larvae on cabbage leaves
Protocol: as §1, §2, §3
After the desired period of time, the kill in % is determined. 100% means that all beetle larvae have been killed; 0% means that none of the beetle larvae have been killed. The kill rates determined are entered into Colby's formula (see page 1).

## CN(Cc1ccc(Cl)nc1)C1=CC(=O)OC1 [compound (Ia), 4-[[(6-chloropyridin-3-yl)methyl](methylamino)]furan-2-(5H)-one]
[1]; 0.16 ppm
  Kill in % after 6^d: 40%
[1]; 0.8 ppm
  Kill in % after 6^d: 70%
[2]; 0.16 ppm
  Kill in % after 1^d: 0%
[2]; 0.8 ppm
  Kill in % after 1^d: 40%
  Kill in % after 6^d: 75%

## O=C1C=C(N(Cc2ccc(Cl)nc2)C2CC2)CO1 [compound (Ib), 4-[[(6-chloropyridin-3-yl)methyl] (cyclopropylamino)]furan-2-(5H)-one]
[1]; 0.8 ppm
  Kill in % after 1^d: 30%
  Kill in % after 6^d: 40%
[3]
  Kill in % after 3^d: 60%
[2]; 4 ppm
  Kill in % after 1^d: 75%

## N#Cc1c[nH]cc1-c1cccc2c1OC(F)(F)O2 [fludioxonil, reference compound]
[1]; 100 ppm
  Kill in % after 6^d: 0%
[2]; 100 ppm
  Kill in % after 1^d: 0%

## COCC(=O)N(c1c(C)cccc1C)C(C)C(=O)OC (centres unmarked) [metalaxyl, reference compound]
[1]; 100 ppm
  Kill in % after 1^d: 10%
[2]; 100 ppm
  Kill in % after 1^d: 0%

## CCCOC(=O)NCCCN(C)C [propamocarb, reference compound]
[3]
  Kill in % after 3^d: 5%

## OC(Cc1ccccc1Cl)(Cn1nc[nH]c1=S)C1(Cl)CC1 (centres unmarked) [prothioconazole, reference compound]
[2]; 100 ppm
  Kill in % after 1^d: 0%
  Kill in % after 6^d: 0%

## CO/N=C(/C(=O)OC)c1ccccc1CO/N=C(\C)c1cccc(C(F)(F)F)c1 [trifloxystrobin, reference compound]
[1]; 100 ppm
  Kill in % after 6^d: 40%

Reference: patent publication US8324130B2, “Synergistic active ingredient combinations” (Bayer Cropscience AG, priority 2006, dated 2012)
